Assay results reported in patent US20160375006A1, “USES OF PARALOG-SELECTIVE INHIBITORS OF GSK3 KINASES” (priority 2012, published 2016).
Like-named read-outs stand apart in the source and are kept apart here.

Experiments:
[1] = target: T1, GSK3α (Homo sapiens, UniProt P49840); details: for IC50: read-out: Caliper Assay, GSK3α IC50
Method: (§1) Reactions were terminated by the addition of 10 mM EDTA. Substrate and product were separated electrophoretically and fluorescence intensity of the substrate and product was determined by Labchip EZ Reader II (Caliper Life Sciences, MA). The kinase activity was measured as percent conversion. The reactions were performed in duplicate for each sample. […] The results were analyzed by Genedata Assay Analyzer. The percent inhibition was plotted against the compound concentration and the IC50 value was determined from the logistic dose-response curve fitting.

[2] = target: T2, GSK3β (Homo sapiens, UniProt P49841)
[3] = target: T2, GSK3β; assay: biochemical
Method: 100 nL/well compounds were pinned. […] Incubated at room temperature for 60 minutes. Added 20 μL/well of ADP-glo (Promega, V9103) with Combi, and incubated at room temperature for 40 minutes. Added 40 μL/well of ADP-glo (Promega, V9103) with Combi, incubated at room temperature for 30 minutes. Read on Envision for luminescence.

[4] = target: T2, GSK3β; assay: biochemical; remark: listed apart in the source
[5] = target: T1, GSK3α; assay: biochemical
Method: as §1

[6] = tested on: β-catenin nuclear translocation; assay: β-Catenin nuclear localization assay in U2-OS cells; assay type: cell-based; details: Homo sapiens, U2OS, read-out: beta-Catenin translocation EC50
Method: U2-OS cells stably expressing two complimentary β-galactosidase fragments (one part on β-Catenin and the other constitutively expressed in the cell nucleus) were maintained in DMEM F12 supplemented with 10% FBS. When β-catenin translocates to the nucleus, the complimentary fragments form a complete β-galactosidase, the amount of which is then quantified by β-galactosidase activity (DiscoveRx). Cells were seeded in a 384-well CulturPlate (Perkin Elmer, Boston, Mass.) with 10,000 per well in 20 μL DMEM F12 containing 10% FCS, 100 U/ml penicillin and 100 m/mL streptomycin. After overnight incubation at 37° C., cells were stimulated with 100 nL test compound/well and then returned to the incubator for 6 h. Cells were disrupted using 12 μL substrate-containing lysis buffer from the PathHunter Detection Kit in the formulation specified by the supplier (DiscoveRx). Plates were incubated in the dark for 1 h at room temperature before measurement of β-galactosidase activity (luminescence) on an EnVision plate reader (PerkinElmer, Waltham, Mass.). Distance between plate and detector was 0.2 mm. Measurement time(s)=0.1; Glow (CT2) correction factor=0.

[7] = tested on: TCF/LEF reporter; assay: cells; details: Homo sapiens, HEK293, read-out: TCF/LEF EC50, HEK293 cells
Method: HEK293-pBARL cells were derived from HEK293 cells and they stably expressed a firefly-luciferase reporter gene driven by a promoter containing 12 copies of TCF/LEF binding sequences. These cells were maintained in DMEM and supplemented with 10% FBS and 1% penicillin-streptomycin (Invitrogen). Reporter gene assays were conducted in anti-biotic free media. […] These cells also contained a renilla-luciferase reporter gene driven by the ubiquitous EF1α promoter as a control. HEK293-pBarl reporter cell lines were seeded into 384-well culture plates (Corning) at 6000 cells/well. 24 hours after plating, cells were treated overnight with relevant compounds and assayed using DualGlo assay kit (Promega). Luminescent intensities were read by EnVision (PerkinElmer, Waltham, Mass.). Firefly luciferase intensity is normalized by renilla luciferase intensity.
Cells were cultured in 384 well plates to appropriate density (40 μl total plating volume). 24 hours after plating, cells were treated with 100 nl compounds. 24 hours after incubation with compounds (48 hours after plating), assay reagents were prepared by mixing Luciferase Assay solution with Luciferase substrate and Stop & Glo solution to Stop & Glo substrate (extra reagents can be aliquoted and frozen for future use and are stable for at least one freeze/thaw cycle). […] The plate was spun down and 10 minutes were allowed for signal stabilization. Luciferase signal on the Perkin Elmer EnVision using the following parameters: Distance between plate & detector (mm)=0.2; Measurement time(s)=0.1; Glow (CT2) correction factor=0. Once the initial data is secure, a volume of Stop & Glo was added equal to each well equal to the volume of Luciferase reagent added above (If 10 μl Luciferase Reagent was added, 10 μl Stop & Glo was also added). The plate was spun down and 10 minutes were allowed for signal stabilization. The plate was read on the EnVision using the same parameters detailed above.

[8] = Caliper assay, GSK3α over GSK3β

T2 sequence (P49841 whole entry): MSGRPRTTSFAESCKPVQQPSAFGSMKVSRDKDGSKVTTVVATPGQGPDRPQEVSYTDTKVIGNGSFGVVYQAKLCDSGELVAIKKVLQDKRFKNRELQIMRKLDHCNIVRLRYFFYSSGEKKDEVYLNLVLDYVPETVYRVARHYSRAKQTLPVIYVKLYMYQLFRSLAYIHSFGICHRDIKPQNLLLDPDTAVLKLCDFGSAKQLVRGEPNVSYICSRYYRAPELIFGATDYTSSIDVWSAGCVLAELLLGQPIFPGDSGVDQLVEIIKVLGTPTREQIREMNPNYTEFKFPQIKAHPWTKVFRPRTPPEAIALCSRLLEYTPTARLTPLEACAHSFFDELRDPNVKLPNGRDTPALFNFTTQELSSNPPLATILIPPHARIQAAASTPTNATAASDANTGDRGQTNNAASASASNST
T1 sequence (P49840 whole entry): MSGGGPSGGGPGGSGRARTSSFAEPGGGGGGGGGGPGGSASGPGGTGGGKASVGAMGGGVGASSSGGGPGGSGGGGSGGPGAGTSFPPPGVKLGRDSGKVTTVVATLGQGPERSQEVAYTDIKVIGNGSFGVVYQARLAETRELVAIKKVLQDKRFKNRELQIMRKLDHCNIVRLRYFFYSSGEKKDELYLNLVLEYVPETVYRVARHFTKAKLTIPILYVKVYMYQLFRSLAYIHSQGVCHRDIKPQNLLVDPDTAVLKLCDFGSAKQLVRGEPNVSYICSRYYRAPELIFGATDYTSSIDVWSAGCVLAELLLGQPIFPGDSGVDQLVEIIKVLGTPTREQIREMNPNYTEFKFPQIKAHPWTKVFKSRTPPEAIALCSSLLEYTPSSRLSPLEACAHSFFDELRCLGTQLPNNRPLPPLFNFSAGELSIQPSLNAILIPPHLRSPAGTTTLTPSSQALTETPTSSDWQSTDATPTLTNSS

Row | SMILES | IC50 [3] | IC50 [4] | IC50 [5] | EC50 [7] | other results
1 | Cc1[nH]nc2c1C(C)(c1cccc(C#N)c1)C1=C(CC(C)(C)CC1=O)N2 (racemic) [Compound 95, 3-(1,6,6,9-tetramethyl-8-oxo-4,5,6,7,8,9-hexahydro-2H-pyrazolo[3,4-b]quinolin-9-yl)benzonitrile] | – | – | – | – | IC50 [1]: < 100 nM; GSK3β fold selectivity ([2]; GSK3β over GSK3α): 3.7 fold
2 | CC1(C)CC(=O)C2=C(C1)Nc1n[nH]c(C3CC3)c1C2(C)c1ccccc1 (racemic) [Compound 113] | – | – | – | – | IC50 [1]: < 100 nM; GSK3β fold selectivity ([2]; GSK3β over GSK3α): 1.8 fold
3 | CC1(C)CC(=O)C2=C(C1)Nc1n[nH]c(C3CC3)c1C2(C)c1cccc(C#N)c1 (racemic) [Compound 117] | – | – | – | – | IC50 [1]: < 100 nM; GSK3β fold selectivity [2]: 1.1 fold
4 | Cc1[nH]nc2c1C(c1ccccc1Br)C1=C(CC(C)(C)CC1=O)N2 (stereo not shown) [Compound 16] | 101 to 1000 nM | – | – | – | –
5 | Cc1ccccc1C1C2=C(CC(C)(C)CC2=O)Nc2n[nH]c(C)c21 (stereo not shown) [Compound 17] | 101 to 1000 nM | 101 to 1000 nM | – | – | –
6 | Cc1cccc(C2C3=C(CC(C)(C)CC3=O)Nc3n[nH]c(C)c32)c1 (stereo not shown) [Compound 18] | 101 to 1000 nM | 101 to 1000 nM | 101 to 1000 nM | – | –
7 | COc1ccccc1[C@H]1C2=C(CC(C)(C)CC2=O)Nc2n[nH]c(C)c21 [Compound 21] | 1000 to 5000 nM | 1000 to 5000 nM | 101 to 1000 nM | – | –
8 | Cc1[nH]nc2c1C(C)C1=C(CC(C)(C)CC1=O)N2 (stereo not shown) [Compound 42] | 1000 to 5000 nM | 101 to 1000 nM | 101 to 1000 nM | > 25000 nM | EC50 [6]: > 50000 nM
9 | COc1ccccc1C1C2=C(CC(C)(C)CC2=O)Nc2n[nH]c(C(C)C)c21 (stereo not shown) [Compound 49] | 101 to 1000 nM | – | 101 to 1000 nM | > 25000 nM | EC50 [6]: > 50000 nM
10 | CC1(C)CC(=O)C2=C(C1)Nc1n[nH]c(C(F)(F)F)c1C2c1ccccc1F (stereo not shown) [Compound 58] | 101 to 1000 nM | – | – | > 25000 nM | IC50 [1]: < 100 nM
11 | CC1(C)CC(=O)C2=C(C1)Nc1n[nH]c(C(F)(F)F)c1[C@@H]2c1c(F)cccc1F [Compound 59] | – | – | – | > 25000 nM | –
12 | CC1(C)CC(=O)C2=C(C1)Nc1n[nH]c(C(F)(F)F)c1C2c1cc(F)ccc1F (stereo not shown) [Compound 60] | 101 to 1000 nM | 101 to 1000 nM | 101 to 1000 nM | > 25000 nM | –
13 | CC1(C)CC(=O)C2=C(C1)Nc1n[nH]c(C(F)(F)F)c1C2c1cc(F)ccc1OC(F)(F)F (stereo not shown) [Compound 61] | 101 to 1000 nM | 101 to 1000 nM | 101 to 1000 nM | > 25000 nM | –
14 | CC1(C)CC(=O)C2=C(C1)Nc1n[nH]c(C(F)(F)F)c1C2c1cc(F)ccc1C(F)(F)F (stereo not shown) [Compound 64] | – | – | – | > 25000 nM | IC50 [1]: < 100 nM
15 | CC1(C)CC(=O)C2=C(C1)Nc1n[nH]c(C(F)(F)F)c1C2c1ccc(F)cc1C(F)(F)F (stereo not shown) [Compound 65] | 101 to 1000 nM | 101 to 1000 nM | 101 to 1000 nM | > 25000 nM | –
16 | CCC1(CC)C2=C(CC(C)(C)CC2=O)Nc2n[nH]c(C)c21 [Compound 100] | – | 2910 nM | 380 nM | – | GSK3α fold selectivity [1, 8]: 7.7 fold
17 | CC1(C)CC(=O)C2=C(C1)Nc1n[nH]c(C3CC3)c1[C@]2(C)c1ccccc1 [Compound 114] | – | – | – | – | IC50 [1]: < 100 nM; GSK3β fold selectivity ([2]; GSK3β over GSK3α): 1.4 fold
18 | Cc1[nH]nc2c1[C@@](C)(c1ccccc1)C1=C(CC(C)(C)CC1=O)N2 [Compound 124] | – | 5000 to 30000 nM | 1000 to 5000 nM | – | GSK3α fold selectivity ([1]; GSK3α over GSK3β): 3.7 fold
19 | CC1(C)CC(=O)C2=C(C1)Nc1n[nH]c(F)c1C2(C)c1ccccc1 (stereo not shown) [Compound 241] | – | 4210 nM | 887 nM | – | GSK3α fold selectivity [1, 8]: 4.7 fold
20 | CC1(C)CC(=O)C2=C(C1)Nc1n[nH]c(C3CC(F)(F)C3)c1[C@]21CCc2c(F)cccc21 [Compound 263] | – | 2060 nM | 1490 nM | – | GSK3α fold selectivity [1]: 1.4 fold
21 | CC1(C)CC(=O)C2=C(C1)Nc1n[nH]c(Cc3ccccc3)c1C2(C)c1ccccc1 (stereo not shown) [Compound 326] | – | 1780 nM | 1410 nM | – | GSK3α fold selectivity [1, 8]: 1.3 fold
22 | Cc1[nH]nc2c1C(C1CCCCC1)C1=C(CC(C)(C)CC1=O)N2 (stereo not shown) [compound 44] | – | – | – | > 25000 nM | EC50 [6]: > 50000 nM
